Reference: BindingDB's records for PubMed 38436272 (Sorbonne University, 2024)

Biological target: Forkhead box protein O3 (Homo sapiens, UniProt O43524)
Assay: Induction of nuclear translocation of FOXO3 in human U2OS cells by inverted microscopic analysis

Forkhead box protein O3, sequence (O43524 whole entry): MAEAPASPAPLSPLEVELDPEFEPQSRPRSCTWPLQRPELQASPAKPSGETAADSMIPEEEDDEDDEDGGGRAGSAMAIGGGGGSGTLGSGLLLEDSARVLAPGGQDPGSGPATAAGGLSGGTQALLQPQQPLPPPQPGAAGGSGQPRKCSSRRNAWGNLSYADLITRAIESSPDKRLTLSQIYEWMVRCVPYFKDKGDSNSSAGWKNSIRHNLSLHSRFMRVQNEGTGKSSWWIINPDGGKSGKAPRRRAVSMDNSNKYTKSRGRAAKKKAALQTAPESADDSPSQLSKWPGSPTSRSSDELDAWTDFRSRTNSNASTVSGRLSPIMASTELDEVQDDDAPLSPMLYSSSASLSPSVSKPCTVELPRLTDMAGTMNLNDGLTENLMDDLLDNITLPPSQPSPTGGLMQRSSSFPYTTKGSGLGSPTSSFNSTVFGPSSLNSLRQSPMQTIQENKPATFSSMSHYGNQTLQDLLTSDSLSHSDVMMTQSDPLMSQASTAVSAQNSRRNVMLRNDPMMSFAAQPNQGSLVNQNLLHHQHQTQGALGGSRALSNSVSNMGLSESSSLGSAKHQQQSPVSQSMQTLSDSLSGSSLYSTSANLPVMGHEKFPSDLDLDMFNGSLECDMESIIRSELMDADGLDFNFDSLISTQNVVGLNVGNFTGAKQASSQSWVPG

EC50: 37.7 µM
SMILES: COc1cc(/C=C/C(=O)N2CCC=CC2=O)cc(OC)c1OC [CHEBI:8241]
